In brackets after ≈: the same amount, converted by molar mass. Each block holds one compound with its values, some of them ahead of it.
Columns and labels:
Test in all cases: In vitro antibacterial evaluation: minimum inhibitory concentration (MIC), broth dilution method
Assay type in all cases: cell-based
Enterococcus sp. = settings: broth dilution, 5×10^5 CFU/mL, 18 hours at 35° C.
Procedure: (§1) The minimum inhibitory concentration (MIC), the lowest concentration of the antibiotic which inhibits growth of the test organism, is determined by the broth dilution method using Muller-Hinton II […] (Baltimore Biological Laboratories) following the recommendations of the National Committee for Clinical Laboratory Standards [Methods for dilution antimicrobial susceptibility tests for bacteria that grow aerobically, approved standard M7-A2, National Committee for Clinical Laboratory Standards, Villanova, Pa].
(§2) An inoculum level of 5×10^5 CFU/mL, and a range of antibiotic concentrations (64-0.06 μg/mL) is used. […] The test organisms include a spectrum of Gram-positive bacteria comprised of Staphylococcus sp., Streptococcus sp. and Enterococcus sp. These organisms include recent clinical isolates that are resistant to methicillin, penicillin and/or vancomycin.

Escherichia coli = settings: 5×10^5 CFU/mL, 18 hours at 35° C.
Procedure: as §1, §2

Staphylococcus sp. = settings: for MIC Staphylococcus aureus (ATCC 29213): strain ATCC 29213; for MIC Staphylococcus aureus (GC 1131): strain GC 1131; for MIC Staphylococcus aureus (GC 3051): strain GC 3051; for MIC Staphylococcus aureus (GC 3053): strain GC 3053; for MIC Staphylococcus aureus (GC 4541): strain GC 4541; for MIC Staphylococcus aureus (GC 4542): strain GC 4542; for MIC Staphylococcus aureus-SMITH (GC 4543): strain GC 4543; for MIC Staphylococcus aureus (GC 4544): strain GC 4544; for MIC Staphylococcus aureus (GC 4545): strain GC 4545; for MIC Coagulase Negative Staphylococcus (GC 4547): strain GC 4547; for MIC Coagulase Negative Staphylococcus (GC 4551): strain GC 4551; for MIC Staphylococcus haemolyticus (GC 4546): strain GC 4546; for MIC Coagulase Negative Staphylococcus (GC 4548): strain GC 4548; for MIC Coagulase Negative Staphylococcus (GC 4549): strain GC 4549; for MIC Coagulase Negative Staphylococcus (GC 6257): strain GC 6257
Procedure: as §1, §2

Streptococcus sp. = settings: broth dilution, 5×10^5 CFU/mL, 18 hours at 35° C.
Procedure: as §1, §2

[1] = broth dilution, 18 hours at 35° C.

MIC Enterococccus avium (GC 4558) (Enterococcus sp.): 1 to 2 µg/mL
MIC Enterococccus faecalis (ATCC 29212) (Enterococcus sp.): 1 to 2 µg/mL
MIC Enterococccus faecalis (GC 2691) (Enterococcus sp.): 1 to 2 µg/mL
MIC Enterococccus faecalis (GC 3059) (Enterococcus sp.): 1 to 2 µg/mL
MIC Enterococccus faecalis (GC 4552) (Enterococcus sp.): 1 to 2 µg/mL
MIC Enterococccus faecalis (GC 4553) (Enterococcus sp.): 1 to 2 µg/mL
MIC Enterococccus faecalis (GC 4554) (Enterococcus sp.): 1 to 2 µg/mL
MIC Enterococccus faecalis (GC 6189) (Enterococcus sp.): 1 to 2 µg/mL
MIC Enterococccus faecium (GC 2243) (Enterococcus sp.): 1 µg/mL (≈ 0.677 µM)
MIC Enterococccus faecium (GC 4556) (Enterococcus sp.): <0.5 to 1 µg/mL
MIC Enterococccus faecium (GC 4557) (Enterococcus sp.): <0.5 to 2 µg/mL
MIC Enterococcus faecalis (GC 2242) (Enterococcus sp.): <0.5 to 2 µg/mL
MIC Escherichia coli (GC 4559) (Escherichia coli): 16 µg/mL (≈ 10.8 µM)
MIC Escherichia coli (GC 4560) (Escherichia coli): 1 µg/mL (≈ 0.677 µM)
MIC Staphylococcus aureus (ATCC 29213) (Staphylococcus sp.): <0.5 to 1 µg/mL
MIC Staphylococcus aureus (ATCC 29213) (Staphylococcus sp.; [1]): <0.5 to 1 µg/mL
MIC Staphylococcus aureus (GC 1131) (Staphylococcus sp.): <0.5 to 1 µg/mL
MIC Staphylococcus aureus (GC 1131) (Staphylococcus sp.; [1]): <0.5 to 1 µg/mL
MIC Staphylococcus aureus (GC 3051) (Staphylococcus sp.): <0.5 to 1 µg/mL
MIC Staphylococcus aureus (GC 3051) (Staphylococcus sp.; [1]): <0.5 to 1 µg/mL
MIC Staphylococcus aureus (GC 3053) (Staphylococcus sp.): 1 µg/mL (≈ 0.677 µM)
MIC Staphylococcus aureus (GC 3053) (Staphylococcus sp.; [1]): 1 µg/mL (≈ 0.677 µM)
MIC Staphylococcus aureus (GC 4541) (Staphylococcus sp.): <0.5 to 1 µg/mL
MIC Staphylococcus aureus (GC 4541) (Staphylococcus sp.; [1]): <0.5 to 1 µg/mL
MIC Staphylococcus aureus (GC 4542) (Staphylococcus sp.): <0.5 to 1 µg/mL
MIC Staphylococcus aureus (GC 4542) (Staphylococcus sp.; [1]): <0.5 to 1 µg/mL
MIC Staphylococcus aureus-SMITH (GC 4543) (Staphylococcus sp.; 18 hours at 35° C.): <0.5 to 1 µg/mL
MIC Staphylococcus aureus-SMITH (GC 4543) (Staphylococcus sp.; [1]): <0.5 to 1 µg/mL
MIC Staphylococcus aureus (GC 4544) (Staphylococcus sp.): <0.5 to 1 µg/mL
MIC Staphylococcus aureus (GC 4544) (Staphylococcus sp.; [1]): <0.5 to 1 µg/mL
MIC Staphylococcus aureus (GC 4545) (Staphylococcus sp.): <0.5 to 1 µg/mL
MIC Staphylococcus aureus (GC 4545) (Staphylococcus sp.; [1]): <0.5 to 1 µg/mL
MIC Coagulase Negative Staphylococcus (GC 4547) (Staphylococcus sp.): <0.5 to 1 µg/mL
MIC Coagulase Negative Staphylococcus (GC 4547) (Staphylococcus sp.; [1]): <0.5 to 1 µg/mL
MIC Coagulase Negative Staphylococcus (GC 4551) (Staphylococcus sp.): <0.5 to 1 µg/mL
MIC Coagulase Negative Staphylococcus (GC 4551) (Staphylococcus sp.; [1]): <0.5 to 1 µg/mL
MIC Streptococcus agalactiae (GC 4564) (Streptococcus sp.): <0.06 µg/mL
MIC Streptococcus pneumoniae (GC 1894) (Streptococcus sp.): <0.06 µg/mL
MIC Streptococcus pneumoniae (GC 4565) (Streptococcus sp.): <0.06 µg/mL
MIC Streptococcus pneumonine (ATCC 6301) (Streptococcus sp.): <0.06 µg/mL
MIC Streptococcus pyogenes (GC 4563) (Streptococcus sp.): <0.06 µg/mL
SMILES: CC(c1ccccc1)C1NC(=O)CNC(=O)C(CO)NC(=O)C(C(O)C2CNC(=N)N2C2OC(CO)C(O)C(O)C2O)NC(=O)C(C(O)C2CNC(=N)N2)NC(=O)C(Cc2ccc(OC3OC(CO)C(OC4OC5COC(Cc6ccc(Br)cc6)OC5C(O)C4O)C(O)C3O)cc2)NC1=O (stereo not drawn) [Example 118, Cyclo[glycyl-β-methylphenylalanyl-O-[4-O-[4,6-O-(4-bromophenethylidene)hexopyranosyl]-hexopyranosyl]tyrosyl-3-(2-iminoimidazolidin-4-yl)seryl-3-(3-hexopyranosyl-2-iminoimidazolidin-4-yl)serylseryl]]

MIC Enterococccus avium (GC 4558) (Enterococcus sp.): 2 µg/mL (≈ 1.43 µM)
MIC Enterococccus faecalis (ATCC 29212) (Enterococcus sp.): 2 µg/mL (≈ 1.43 µM)
MIC Enterococccus faecalis (GC 2691) (Enterococcus sp.): 2 µg/mL (≈ 1.43 µM)
MIC Enterococccus faecalis (GC 3059) (Enterococcus sp.): 2 µg/mL (≈ 1.43 µM)
MIC Enterococccus faecalis (GC 4552) (Enterococcus sp.): 2 µg/mL (≈ 1.43 µM)
MIC Enterococccus faecalis (GC 4553) (Enterococcus sp.): 4 µg/mL (≈ 2.85 µM)
MIC Enterococccus faecalis (GC 4554) (Enterococcus sp.): 2 µg/mL (≈ 1.43 µM)
MIC Enterococccus faecalis (GC 6189) (Enterococcus sp.): 2 µg/mL (≈ 1.43 µM)
MIC Enterococccus faecium (GC 2243) (Enterococcus sp.): 2 µg/mL (≈ 1.43 µM)
MIC Enterococccus faecium (GC 4556) (Enterococcus sp.): 2 µg/mL (≈ 1.43 µM)
MIC Enterococccus faecium (GC 4557) (Enterococcus sp.): 4 µg/mL (≈ 2.85 µM)
MIC Enterococcus faecalis (GC 2242) (Enterococcus sp.): 2 µg/mL (≈ 1.43 µM)
MIC Escherichia coli (ATCC 25922) (Escherichia coli): 32 µg/mL (≈ 22.8 µM)
MIC Escherichia coli (GC 4559) (Escherichia coli): 32 µg/mL (≈ 22.8 µM)
MIC Escherichia coli (GC 4560) (Escherichia coli): 2 µg/mL (≈ 1.43 µM)
MIC Staphylococcus aureus (ATCC 29213) (Staphylococcus sp.): 2 µg/mL (≈ 1.43 µM)
MIC Staphylococcus aureus (ATCC 29213) (Staphylococcus sp.; [1]): 2 µg/mL (≈ 1.43 µM)
MIC Staphylococcus aureus (GC 1131) (Staphylococcus sp.): 2 µg/mL (≈ 1.43 µM)
MIC Staphylococcus aureus (GC 1131) (Staphylococcus sp.; [1]): 2 µg/mL (≈ 1.43 µM)
MIC Staphylococcus aureus (GC 3051) (Staphylococcus sp.): 2 µg/mL (≈ 1.43 µM)
MIC Staphylococcus aureus (GC 3051) (Staphylococcus sp.; [1]): 2 µg/mL (≈ 1.43 µM)
MIC Staphylococcus aureus (GC 3053) (Staphylococcus sp.): 2 µg/mL (≈ 1.43 µM)
MIC Staphylococcus aureus (GC 3053) (Staphylococcus sp.; [1]): 2 µg/mL (≈ 1.43 µM)
MIC Staphylococcus aureus (GC 4541) (Staphylococcus sp.): 2 µg/mL (≈ 1.43 µM)
MIC Staphylococcus aureus (GC 4541) (Staphylococcus sp.; [1]): 2 µg/mL (≈ 1.43 µM)
MIC Staphylococcus aureus (GC 4542) (Staphylococcus sp.): 2 µg/mL (≈ 1.43 µM)
MIC Staphylococcus aureus (GC 4542) (Staphylococcus sp.; [1]): 2 µg/mL (≈ 1.43 µM)
MIC Staphylococcus aureus-SMITH (GC 4543) (Staphylococcus sp.; 18 hours at 35° C.): 2 µg/mL (≈ 1.43 µM)
MIC Staphylococcus aureus-SMITH (GC 4543) (Staphylococcus sp.; [1]): 2 µg/mL (≈ 1.43 µM)
MIC Staphylococcus aureus (GC 4544) (Staphylococcus sp.): 1 µg/mL (≈ 0.713 µM)
MIC Staphylococcus aureus (GC 4544) (Staphylococcus sp.; [1]): 1 µg/mL (≈ 0.713 µM)
MIC Staphylococcus aureus (GC 4545) (Staphylococcus sp.): 2 µg/mL (≈ 1.43 µM)
MIC Staphylococcus aureus (GC 4545) (Staphylococcus sp.; [1]): 2 µg/mL (≈ 1.43 µM)
MIC Coagulase Negative Staphylococcus (GC 4547) (Staphylococcus sp.): 2 µg/mL (≈ 1.43 µM)
MIC Coagulase Negative Staphylococcus (GC 4547) (Staphylococcus sp.; [1]): 2 µg/mL (≈ 1.43 µM)
MIC Coagulase Negative Staphylococcus (GC 4548) (Staphylococcus sp.): 1 µg/mL (≈ 0.713 µM)
MIC Coagulase Negative Staphylococcus (GC 4548) (Staphylococcus sp.; [1]): 1 µg/mL (≈ 0.713 µM)
MIC Coagulase Negative Staphylococcus (GC 4549) (Staphylococcus sp.): 1 µg/mL (≈ 0.713 µM)
MIC Coagulase Negative Staphylococcus (GC 4549) (Staphylococcus sp.; [1]): 1 µg/mL (≈ 0.713 µM)
MIC Coagulase Negative Staphylococcus (GC 4551) (Staphylococcus sp.): 2 µg/mL (≈ 1.43 µM)
MIC Coagulase Negative Staphylococcus (GC 4551) (Staphylococcus sp.; [1]): 2 µg/mL (≈ 1.43 µM)
MIC Coagulase Negative Staphylococcus (GC 6257) (Staphylococcus sp.): 1 µg/mL (≈ 0.713 µM)
MIC Coagulase Negative Staphylococcus (GC 6257) (Staphylococcus sp.; [1]): 1 µg/mL (≈ 0.713 µM)
MIC Streptococcus agalactiae (GC 4564) (Streptococcus sp.): 0.12 µg/mL (≈ 0.0855 µM)
MIC Streptococcus pneumoniae (GC 1894) (Streptococcus sp.): <0.06 µg/mL
MIC Streptococcus pneumoniae (GC 4565) (Streptococcus sp.): 0.12 µg/mL (≈ 0.0855 µM)
MIC Streptococcus pneumonine (ATCC 6301) (Streptococcus sp.): <0.06 µg/mL
MIC Streptococcus pyogenes (GC 4563) (Streptococcus sp.): <0.06 µg/mL
SMILES: CC(c1ccccc1)C1NC(=O)CNC(=O)C(CO)NC(=O)C(C(O)C2CNC(=N)N2C2OC(CO)C(O)C(O)C2O)NC(=O)C(C(O)C2CNC(=N)N2)NC(=O)C(Cc2ccc(OC3OC(CO)C(OC4OC5COC(CC6CCCCC6)OC5C(O)C4O)C(O)C3O)cc2)NC1=O (stereo not shown) [Example 122]
MIC Staphylococcus haemolyticus (GC 4546) (Staphylococcus sp.): 2 µg/mL (≈ 1.43 µM)
MIC Staphylococcus haemolyticus (GC 4546) (Staphylococcus sp.; [1]): 2 µg/mL (≈ 1.43 µM)
